Ends that are not written are not given here.
Columns and labels:
[1] = test system: C. albicans Y537; assay: MIC, YPD broth; format: cell-based, Candida albicans; conditions: Table 8
[2] = test system: C. albicans MYA-2876; assay: MIC, YPD broth; format: cell-based, Candida albicans; conditions: Table 8
Procedure, shortened: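 Minimum inhibitory concentrations against Candida albicans were determined in YPD broth (10 g/L yeast extract, 20 g/L peptone, 20 g/L dextrose) using peptides of 95% purity. A 180 μl volume of diluted yeast was combined with 20 μl of peptide in a 2-fold dilution series in 96-well plates, with sterile water as control, then incubated standing overnight at 37° C.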

[3] = test system: Candida lusitaniae AR 398; assay: MIC, YPD broth, CDC and FDA AR Candida isolate panel; format: cell-based; conditions: Table 9 below the line: only 200 or 100 μg/mL tested; values reported as 100 are ≤100 μg/mL
Procedure, shortened: (§1)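 Each isolate was diluted to an optical density of […] and combined with peptide at twofold stepwise concentrations. Plates then sat unshaken overnight at 37° C. Sterile water replaced peptide in control wells.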

[4] = test system: Candida krusei AR 397; assay: as above; format: cell-based; conditions: Table 9 below the line: only 200 or 100 μg/mL tested; values reported as 100 are ≤100 μg/mL
Procedure, shortened: as §1

[5] = test system: Candida haemulonii AR 395; assay: as above; format: cell-based; conditions: Table 9 below the line: only 200 or 100 μg/mL tested; values reported as 100 are ≤100 μg/mL
Procedure, shortened: as §1

[6] = test system: Candida duobushaemulonii AR 392; assay: as above; format: cell-based; conditions: Table 9 below the line: only 200 or 100 μg/mL tested; values reported as 100 are ≤100 μg/mL
Procedure, shortened: as §1

[7] = test system: Saccharomyces cerevisiae AR 399; assay: as above; format: cell-based; conditions: Table 9 below the line: only 200 or 100 μg/mL tested; values reported as 100 are ≤100 μg/mL
Procedure, shortened: as §1

[8] = test system: Kodamae ohmeri AR 396; assay: as above; format: cell-based; conditions: Table 9 below the line: only 200 or 100 μg/mL tested; values reported as 100 are ≤100 μg/mL
Procedure, shortened: as §1

[9] = test system: Candida duobushaemulonii AR 391; assay: as above; format: cell-based; conditions: Table 9 below the line: only 200 or 100 μg/mL tested; values reported as 100 are ≤100 μg/mL
Procedure, shortened: as §1

[10] = test system: Saccharomyces cerevisiae AR 400; assay: as above; format: cell-based; conditions: Table 9 below the line: only 200 or 100 μg/mL tested; values reported as 100 are ≤100 μg/mL
Procedure, shortened: as §1

[11] = test system: Candida duobushaemulonii AR 394; assay: as above; format: cell-based; conditions: Table 9 below the line: only 200 or 100 μg/mL tested; values reported as 100 are ≤100 μg/mL
Procedure, shortened: as §1

[12] = test system: Candida haemulonii AR 393; assay: as above; format: cell-based; conditions: Table 9 below the line: only 200 or 100 μg/mL tested; values reported as 100 are ≤100 μg/mL
Procedure, shortened: as §1

[13] = test system: S. aureus / MRSA (ATCC MP-2 panel); format: cell-based, Staphylococcus aureus; conditions: for inhibition of S. aureus: MIC screen, in words
Description: In order to begin to characterize STIP3-1 and potential sites amenable to modification, an alanine scanning experiment was performed. A total of 16 peptides with single alanine substitutions were assessed to inform on the importance of individual residues to antimicrobial activity. […] Next a series of thirty STIP3-1 variants were designed, guided by the aforementioned alanine scan and a previous report that the central α-helical core of the S. aureus δ-toxin could be converted into AMP through the inclusion of additional lysine residues^39. The collection included ten members with single substitutions relative to STIP3-1 and others that incorporated a number of changes that were designed to increase overall and local cationic charge as well as hydrophobic character (Table 5). Each of the STIPs was screened, including STIP3-1 to STIP-31, for antibiotic activity against a methicillin-sensitive S. aureus test organism and a panel of 7 MRSA strains defined by distinct SCCmec genotypes (FIG. 2; ATCC MP-2).
Determination of minimum inhibitory concentrations. The MICs were measured for bioactive peptides identified from the initial screen. For bacterial studies, cation-adjusted Mueller Hinton (MH) broth was used as the growth medium whereas YPD was used for C. albicans. Bacterial cultures were diluted to a OD value of 6×10^−4 in MH broth and a 180 μl volume was mixed with 20 μl of peptide arrayed as 2-fold dilution series in a 96-well plate. For the positive control, 20 μl of sterile water was used. Plates were incubated as standing cultures overnight at 37° C. The lowest peptide concentration that resulted no observed microbial growth after an overnight treatment was defined as the MIC.

[14] = test system: S. aureus ATCC 33592 (MRSA SCCmec type III); assay: MIC, broth dilution; format: cell-based, Staphylococcus aureus; conditions: Table 5; STIP3 variants, highest concentration 100 μg/mL
Procedure, shortened: (§2)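 Peptides of 95% purity tested as 2-fold dilution series against bacteria diluted to OD 6×10^−4 in cation-adjusted Mueller Hinton broth. Standing cultures incubated overnight at 37° C; MIC is the lowest concentration with no visible growth.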

[15] = test system: S. aureus ATCC BAA-2313 (MRSA SCCmec type XI); assay: MIC, broth dilution; format: cell-based, Staphylococcus aureus; conditions: Table 5; STIP3 variants, highest concentration 100 μg/mL
Procedure, shortened: as §2

[16] = test system: S. aureus ATCC BAA-2094 (MRSA SCCmec type V); assay: MIC, broth dilution; format: cell-based, Staphylococcus aureus; conditions: Table 5; STIP3 variants, highest concentration 100 μg/mL
Procedure, shortened: as §2

[17] = test system: S. aureus ATCC BAA-42 (MRSA SCCmec type VI); assay: MIC, broth dilution; format: cell-based, Staphylococcus aureus; conditions: Table 5; STIP3 variants, highest concentration 100 μg/mL
Procedure, shortened: as §2

[18] = test system: S. aureus ATCC BAA-1683 (MRSA SCCmec type IV); assay: MIC, broth dilution; format: cell-based, Staphylococcus aureus; conditions: Table 5; STIP3 variants, highest concentration 100 μg/mL
Procedure, shortened: as §2

[19] = test system: S. aureus ATCC BAA-44 (MRSA SCCmec type I); assay: MIC, broth dilution; format: cell-based, Staphylococcus aureus; conditions: Table 5; STIP3 variants, highest concentration 100 μg/mL
Procedure, shortened: as §2

[20] = test system: S. aureus ATCC BAA-41 (MRSA SCCmec type II); assay: MIC, broth dilution; format: cell-based, Staphylococcus aureus; conditions: Table 5; STIP3 variants, highest concentration 100 μg/mL
Procedure, shortened: as §2

[21] = test system: S. aureus ATCC 29213; assay: MIC, broth dilution; format: cell-based, Staphylococcus aureus; conditions: Table 5; STIP3 variants, highest concentration 100 μg/mL
Procedure, shortened: as §2

[22] = test system: Mannheimia haemolytica ATCC 33393; assay: MIC, broth dilution; format: cell-based; conditions: Table 11; highest concentration 25 μg/mL
Procedure, shortened: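 Peptides (95% purity) in 2-fold dilution series were mixed with M. haemolytica diluted to OD 6×10^−4 in cation-adjusted Mueller Hinton broth and incubated standing overnight at 37 °C. MIC was the lowest concentration with no visible growth.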

[23] = Circular dichroism spectroscopy; format: physicochemical; conditions: CD, 50% (v/v) TFE
From the text: The δ-toxins and the PSMs are characterized as α-helical peptides that form amyloid fibers^48. Although the propensity of individual peptides to form amyloids is correlated to their cytotoxicity^49, the amyloid form is not directly implicated in cell membrane disruption^50. […] CD spectroscopy was used to investigate the secondary structure of a subset of peptides within the collection (FIG. 4A, Table 5). The STIP variants adopted α-helical forms in 50% (v/v) trifluoroethanol (TFE), though unlike the full-length S. auricularis δ-toxin, they were unstructured in water. […] Specifically, peptides characterized by the greatest and least α-helical content in TFE had MICs above the highest tested threshold.
Circular dichroism spectroscopy. Peptides were dissolved in water at concentrations between 0.3 and 0.5 mg/mL. CD spectra were recorded on an Applied Photophysics Chirascan Plus CD spectrophotometer at room temperature in a 0.1 cm path-length quartz cuvette. Spectra were recorded from 180 to 260 nm.

Substance | MIC C. albicans Y537 [1] | MIC C. albicans MYA-2876 [2] | MIC (μg/mL) Candida lusitaniae AR 398 [3] | MIC (μg/mL) Candida krusei AR 397 [4] | MIC (μg/mL) Candida haemulonii AR 395 [5] | MIC (μg/mL) Candida duobushaemulonii AR 392 [6] | MIC (μg/mL) Saccharomyces cerevisiae AR 399 [7] | MIC (μg/mL) Kodamae ohmeri AR 396 [8] | MIC (μg/mL) Candida duobushaemulonii AR 391 [9] | MIC (μg/mL) Saccharomyces cerevisiae AR 400 [10] | MIC (μg/mL) Candida duobushaemulonii AR 394 [11] | MIC (μg/mL) Candida haemulonii AR 393 [12] | inhibition of S. aureus [13] | MIC S. aureus ATCC 33592 (III) [14] | MIC S. aureus ATCC BAA 2313 (XI) [15] | MIC S. aureus ATCC BAA 2094 (V) [16] | MIC S. aureus ATCC BAA 42 (VI) [17] | MIC S. aureus ATCC BAA 1683 (IV) [18] | MIC S. aureus ATCC BAA 44 (I) [19] | MIC S. aureus ATCC 29213 [21] | also measured
TVKVLVKWILKVVAKFA [STIP3-26, TVKVLVKWILKVVAKFA] | > (> symbol indicates that no inhibition was observed at the highest concentration of peptide tested: 100 μg/mL) | > (> symbol indicates that no inhibition was observed at the highest concentration of peptide tested: 100 μg/mL) | ≤ 100 µg/mL | > (values below the line were determined using two concentrations of peptide 200 or 100 μg/mL) | > (values below the line were determined using two concentrations of peptide 200 or 100 μg/mL) | > (values below the line were determined using two concentrations of peptide 200 or 100 μg/mL) | ≤ 100 µg/mL | > (values below the line were determined using two concentrations of peptide 200 or 100 μg/mL) | > (values below the line were determined using two concentrations of peptide 200 or 100 μg/mL) | ≤ 100 µg/mL | > (values below the line were determined using two concentrations of peptide 200 or 100 μg/mL) | > (values below the line were determined using two concentrations of peptide 200 or 100 μg/mL) | incapable of inhibiting S. aureus | > (no inhibition was observed at the highest concentration of peptide tested: 100 μg/mL for the STIP3 variants) | > (no inhibition was observed at the highest concentration of peptide tested: 100 μg/mL for the STIP3 variants) | > (no inhibition was observed at the highest concentration of peptide tested: 100 μg/mL for the STIP3 variants) | > (no inhibition was observed at the highest concentration of peptide tested: 100 μg/mL for the STIP3 variants) | > (no inhibition was observed at the highest concentration of peptide tested: 100 μg/mL for the STIP3 variants) | > (no inhibition was observed at the highest concentration of peptide tested: 100 μg/mL for the STIP3 variants) | > (no inhibition was observed at the highest concentration of peptide tested: 100 μg/mL for the STIP3 variants) | MIC S. aureus ATCC BAA 41 (II) [20]: > (no inhibition was observed at the highest concentration of peptide tested: 100 μg/mL for the STIP3 variants); MIC (μg/mL) M. haemolytica [22]: > (> symbol indicates that no inhibition was observed at the highest concentration of peptide tested: 25 μg/mL)
TVKFLVKWILKWVAKFA [STIP3-25, TVKFLVKWILKWVAKFA] | 25 µg/mL | 25 µg/mL | ≤ 100 µg/mL | > (values below the line were determined using two concentrations of peptide 200 or 100 μg/mL) | > (values below the line were determined using two concentrations of peptide 200 or 100 μg/mL) | > (values below the line were determined using two concentrations of peptide 200 or 100 μg/mL) | ≤ 100 µg/mL | > (values below the line were determined using two concentrations of peptide 200 or 100 μg/mL) | > (values below the line were determined using two concentrations of peptide 200 or 100 μg/mL) | ≤ 100 µg/mL | > (values below the line were determined using two concentrations of peptide 200 or 100 μg/mL) | > (values below the line were determined using two concentrations of peptide 200 or 100 μg/mL) | incapable of inhibiting S. aureus | > (no inhibition was observed at the highest concentration of peptide tested: 100 μg/mL for the STIP3 variants) | > (no inhibition was observed at the highest concentration of peptide tested: 100 μg/mL for the STIP3 variants) | > (no inhibition was observed at the highest concentration of peptide tested: 100 μg/mL for the STIP3 variants) | > (no inhibition was observed at the highest concentration of peptide tested: 100 μg/mL for the STIP3 variants) | > (no inhibition was observed at the highest concentration of peptide tested: 100 μg/mL for the STIP3 variants) | > (no inhibition was observed at the highest concentration of peptide tested: 100 μg/mL for the STIP3 variants) | > (no inhibition was observed at the highest concentration of peptide tested: 100 μg/mL for the STIP3 variants) | MIC S. aureus ATCC BAA 41 (II) [20]: > (no inhibition was observed at the highest concentration of peptide tested: 100 μg/mL for the STIP3 variants); MIC (μg/mL) M. haemolytica [22]: > (> symbol indicates that no inhibition was observed at the highest concentration of peptide tested: 25 μg/mL)
TVGGLVKWILKTVKKFA-NH2 [STIP3-29-D3] |  |  |  |  |  |  |  |  |  |  |  |  |  | > (no inhibition was observed at the highest concentration of peptide tested: 100 μg/mL for the STIP3 variants) |  |  |  |  |  | > (no inhibition was observed at the highest concentration of peptide tested: 100 μg/mL for the STIP3 variants) | α helicity (%) [23]: 32%; fold increase of MIC relative to STIP3-29 [13]: greater than 16 fold

Source: patent US12370235B2, “Synthetic, non-natural antimicrobial peptides inspired by Staphylococcus auricularis delta toxin” (University of Saskatchewan, priority 2021, dated 2025)
